A short description of data set [1]: Pharmacokinetic studies comparing relative distribution in brain and plasma. The following applies: rodents.
For data set [2] the following is noted: human, in vivo; cited from earlier work.

For `O=C(O)/C=C/c1cccc(/C(=C/CN2CCCC2)c2ccc(C(F)(F)F)cc2)n1` [Compound of Formula (I), (E)-3-{6-[3-Pyrrolidino-1(4-Trifluoromethylphenyl)prop-1E-enyl]-2-pyridyl}acrylic acid], the “penetration of the brain” value in data set [1] was “does not readily penetrate the brains of rodents”.
Turning to `Cc1ccc(/C(=C\CN2CCCC2)c2ccccn2)cc1` [Triprolidine, (E)-1-(4-methylphenyl)-1-(2-pyridyl)-3-pyrrolidinoprop-1-ene], the sedation and drowsiness entry in data set [2] is “produces sedation and drowsiness in varying degrees in most patients”.

These data come from US4639459A, “Use of trifluoromethyl compounds” (priority 1985, dated 1987).
